Source: patent US20150306108A1, “COMPOSITIONS OF ALDH1A1 INHIBITORS AND METHODS OF USE IN TREATING CANCER” (Indiana University Research & Technology Corporation, priority 2014, published 2015)
Read-outs that look alike come from different tables or passages of the source.

Tests used:
ALDH1A2 = biological target: T1, ALDH1A2 (Homo sapiens, UniProt O94788); assay: biochemical; assay type: biochemical; details: for effect on aldehyde oxidation catalyzed by ALDH1A2: 100 μM compound (CM037: concentrations up to 100 μM)
T1 sequence (O94788 1-518): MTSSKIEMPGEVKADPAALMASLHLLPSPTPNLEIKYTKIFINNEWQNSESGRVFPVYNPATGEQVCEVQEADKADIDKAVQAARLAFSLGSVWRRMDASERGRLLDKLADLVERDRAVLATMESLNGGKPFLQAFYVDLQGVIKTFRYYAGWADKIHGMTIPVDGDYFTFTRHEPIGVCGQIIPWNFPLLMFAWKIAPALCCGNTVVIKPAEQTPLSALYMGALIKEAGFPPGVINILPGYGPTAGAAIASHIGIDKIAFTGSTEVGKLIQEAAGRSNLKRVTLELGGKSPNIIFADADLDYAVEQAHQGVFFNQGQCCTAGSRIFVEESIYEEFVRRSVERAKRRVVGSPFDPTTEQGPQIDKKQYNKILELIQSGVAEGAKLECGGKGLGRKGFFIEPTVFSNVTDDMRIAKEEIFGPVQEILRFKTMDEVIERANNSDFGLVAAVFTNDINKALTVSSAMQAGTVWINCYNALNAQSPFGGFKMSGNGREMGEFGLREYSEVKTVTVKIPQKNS

ALDH3A1 = biological target: T2, ALDH3A1 (Homo sapiens, UniProt P30838); assay: ALDH3A1 benzaldehyde oxidation activity assay; assay type: biochemical; details: for IC50: Table 4, NI/NI(A) at 100 μM compound, read-out: IC50 in μM (SE) ALDH3A1
T2 construct: made in house
T2 sequence (P30838 1-453): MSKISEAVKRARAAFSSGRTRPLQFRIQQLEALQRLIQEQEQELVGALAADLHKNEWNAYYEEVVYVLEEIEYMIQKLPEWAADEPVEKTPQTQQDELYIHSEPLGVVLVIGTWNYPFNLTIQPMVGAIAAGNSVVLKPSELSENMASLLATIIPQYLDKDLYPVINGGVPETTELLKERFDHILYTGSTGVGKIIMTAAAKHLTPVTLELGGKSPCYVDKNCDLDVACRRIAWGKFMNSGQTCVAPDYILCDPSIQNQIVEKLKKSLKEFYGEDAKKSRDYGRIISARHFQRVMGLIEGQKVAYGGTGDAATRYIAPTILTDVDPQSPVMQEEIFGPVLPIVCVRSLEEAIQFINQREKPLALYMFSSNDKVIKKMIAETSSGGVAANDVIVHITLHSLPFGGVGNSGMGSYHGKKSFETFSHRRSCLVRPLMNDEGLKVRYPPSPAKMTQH
Method: Hits from the HTS were ordered from ChemDiv to determine if they had any effect on aldehyde oxidation and whether they were selective for ALDH1A1 compared to ALDH2 and ALDH3A1. Dehydrogenase activity of the three isoenzymes were assayed by monitoring the production of NADH at 340 nm (molar extinction coefficient of 6220 M^−1 cm^−1) on a Beckman DU-640 or Cary 300 Bio UV-Vis spectrophotometer for 2 to 3 minutes. For ALDH1A1 and ALDH2, the reaction contained 100-200 nM enzyme, 200 μM NAD^+, 100 μM propionaldehyde, and 1% DMSO in 50 mM Na^+ BES, pH 7.5 at room temperature. For ALDH3A1, the reaction contained 20 nM enzyme, 200 μM NAD^+, 300 μM benzaldehyde, and 1% DMSO in either 100 mM sodium phosphate or 50 mM Na^+ BES at pH 7.5 at room temperature.
For most compounds, 20 μM concentration was used for the selectivity assays. […] Following a 2 minute incubation of enzyme, compound, and NAD^+, the reaction was initiated by adding substrate. […] Data were fit to the four parameter EC50 equation using SigmaPlot (StatSys v12.3).
Dehydrogenase activity of purified recombinant ALDH1A1, ALDH1A2, ALDH1A3, ALDH1B1, ALDH2, and ALDH3A1 was assayed spectrophotometrically by monitoring the formation of NADH at 340 nm (molar extinction coefficient of 6220 M^−1 cm^−1) on a Beckman DU-640 or Cary 300 Bio UV-Vis spectrophotometer. Characterization of ALDH1A1 WT and ALDH1A1 G458N were performed by co-varying acetaldehyde and NAD^+ concentrations in reactions containing 150-300 nM enzyme, 50-500 μM or 20-200 μM acetaldehyde, and 50-500 μM NAD^+ in 50 mM sodium BES, pH 7.5 at 25° C. Reactions were initiated by adding enzyme. Selectivity of compounds for dehydrogenase activity of ALDH1A1, ALDH1A2, ALDH1A3, ALDH1B1 and ALDH2 were measured in a solution containing 100-200 nM enzyme, 200 μM NAD^+, 1% DMSO, and 100 μM propionaldehyde (non-saturating for all enzymes tested, except ALDH2) in 50 mM sodium BES. ALDH3A1 activity was measured under the following conditions: 25 nM enzyme, 200 μM NAD^+, 1% DMSO, and 300 μM benzaldehyde (˜KM) in either 100 mM sodium phosphate buffer, pH 7.5 or 50 mM sodium BES, pH 7.5. All assays were performed at 25° C. and were initiated by the addition of the aldehyde substrate following a 2 minute pre-incubation with compound and cofactor. Selectivity was initially tested using 20 μM compound, with ALDH1A1-selective modulators further tested using 100 μM compound. […] After a 2 minute pre-incubation with compound and NAD^+, all reactions were initiated by the addition of propionaldehyde. Data were fit to the four parameter EC50 equation using SigmaPlot (StatSys v12.3). The values represent the average of three independent experiments (each n=3). The mode of inhibition was determined via steady-state kinetics by co-varying inhibitor and substrate concentrations at fixed concentration of the second substrate. All reactions contained 100-150 nM ALDH1A1 and 1% DMSO in 50 mM sodium BES, pH 7.5 at 25° C. […] All data were fit to competitive, noncompetitive, uncompetitive, and mixed inhibition models using both single substrate-single inhibitor or tight binding inhibition programs in SigmaPlot (StatSys v12.3). The appropriate model was selected through analysis of goodness-of-fit and the residuals of those fits. The values represent the average of three independent experiments (each n=3) using at least two protein preps.
ALDH1A1, ALDH1A2, ALDH1A3, ALDH2, and ALDH3A1 were produced and purified as previously described. A highthroughput screen (HTS) of 64,000 compounds from the ChemDiv Corp. was performed to identify activators and inhibitors of ALDH1A1. The hydrolysis of para-nitrophenylacetate was used as a measure ALDH1A1 activity (see SM). Selectivity for closely related orthologs was tested at 20 and 100 μM using purified recombinant human ALDH1A1, ALDH1A2, ALDH1A3, ALDH2, and ALDH3A1. […]

[1] = Table 4, NI/NI(A) at 100 μM compound, read-out: IC50 in μM (SE) ALDH1A2

CCOC(=O)CSc1nc2c(sc3ccccc32)c(=O)n1CCCN1CCCC1 [CM037, ethyl-2-((4-oxo-3-(3-(pryrrolidin-1-yl)propyl)-3,4-dihydrobenzo[4,5]thioeno[3,2-d]pyrimidin-2-yl)thio)acetate] was tested, and the “effect on aldehyde oxidation catalyzed by ALDH1A2” value (ALDH1A2) was “no effect” and the “effect on ALDH3A1” value (ALDH3A1; concentrations up to 100 μM) was “no effect”.
Cn1c(=O)c2[nH]cnc2n(C)c1=O [Theophylline, reference compound] gave an IC50 (ALDH1A2) greater than 100 µM and an IC50 (ALDH3A1) greater than 100 µM.
In the case of Cn1c(=O)c2c(nc(CN3CCC(C(N)=O)CC3)n2CCCc2ccccc2)n(C)c1=O [CM028], the IC50 (ALDH1A2; [1]) is reported as greater than 100 µM and the IC50 (ALDH3A1) is reported as greater than 100 µM.
Compound CC(C)CCn1c(CN2CCOCC2)nc2c1c(=O)n(C)c(=O)n2C [CM056] has an IC50 (ALDH1A2; [1]) greater than 100 µM and an IC50 (ALDH3A1) greater than 100 µM.
CC(C)CCn1c(CN2CCN(C(=O)c3ccco3)CC2)nc2c1c(=O)n(C)c(=O)n2C [CM026] was tested, and the “effect on ALDH1A2” value (ALDH1A2; 20 μM compound) was “no effect”, the “effect on aldehyde oxidation catalyzed by ALDH1A2” value (ALDH1A2) was “modestly increased” and the IC50 (ALDH1A2; [1]) was greater than 100 µM. For the same compound, the “effect on ALDH3A1” value (ALDH3A1; 20 μM compound) was “no effect” and the IC50 (ALDH3A1) was greater than 100 µM.
With COc1ccc(C(=O)CSC#N)cc1OC [CM302] the “effect on ALDH3A1” value (ALDH3A1; 20 μM compound) was “To a limited degree” and the “IC50 with ALDH3A1 compared to ALDH1A1 and ALDH2” value (ALDH3A1; fold higher) was “greater than 10 fold”.
For Cn1c(=O)c2c(ncn2C)n(C)c1=O [Caffeine, reference compound], the IC50 (ALDH1A2; [1]) was greater than 100 µM and the IC50 (ALDH3A1) was greater than 100 µM.
